Laboratory results: patent US9782361B2 (Katholieke Universiteit Leuven, priority 2011, dated 2017)

How the values were obtained:
[1] = test system: PTZ-induced seizures in mice; assay: Mouse PTZ-induced seizure assay (PTZ tail vein infusion); format: in vivo
Procedure: Mice were randomly divided into groups of five animals (vehicle (where vehicle was polyethylene glycol 200 (PEG200):water 1:1) and sample). The animals were pre-warmed under an infrared lamp for 10 minutes to dilate the tail veins. They were then placed in a restrainer and the lateral tail vein was catheterized with 1-cm long, 29-gauge needle. The needle was secured to the tail with surgical tape after confirming a correct placement. The needle was attached to a 0.7-m long polyethylene tubing connected to two 2.5-ml glass syringes containing: a) sample (control vehicle or test compounds) and b) PTZ (7.5 mg/ml ddH2O). These syringes were mounted on an infusion pump (ALADOIN-1000 11 VDC, 0.75 Å, World Precision Instruments). Thus, 100 μL of control vehicle (PEG 200: ddH2O 1:1) or test compounds (turmeric oil and ar-turmerone) were IV infused at the rate of 50 μl/min for 2 minutes. Ten minutes later, mice were released from the restrainer and placed in a transparent plastic cage for observation.
PTZ was constantly infused at the rate of 150 μl/min. Seizure manifestation stages in mice were scored according to the time between the start of PTZ infusion and the following behavioral events: ear, tail and myoclonic twitch, forelimb clonus, falling, tonic hindlimb extension and death (28). Behavior was observed up to 5 minutes of PTZ infusion. In case of any surviving mice, they were sacrificed.
PTZ doses were calculated according to the formula: PTZ dose [mg/kg]=(PTZ concentration [mg/ml]×infusion rate [ml/s]×infusion duration [s]×1000)/mouse weight [g]). All work solutions contained heparine (20 μl/ml).
All statistical analyses were performed using GraphPad Prism 5 software (GraphPad Software, Inc.). Values were presented as means±standard deviation (SD). […] For mouse experiments, significant differences between estimated time intervals prior to above-mentioned seizure stages were calculated using the unpaired Student's t-test.

[2] = test system: PTZ-induced seizures in zebrafish larvae; assay: Zebrafish PTZ seizure assay (videotracking of larval locomotor activity); format: in vivo
Procedure: Zebrafish larvae from 7-dpf were tracked using the ViewPoint VideoTrack System for Zebrafish™ (Version 2.3.1.0, ViewPoint, France). The system consists of an infrared light source, a high-resolution digital videocamera to capture larval movements within a defined time period (30 minutes in our experimental set-up) and the software to analyze larval locomotor activity (FIG. 1).
The highest concentration tested corresponds to the previously determined MTC. Zebrafish larvae were placed in a 96-well plate (tissue culture plate, flat bottom, FALCON®, USA); one larva per well. Each row of the plate (12 wells) comprised different treatment groups. Two adjacent rows contain the same compound but received two different treatments: a) first row, embryo medium (DMSO 1%), and b) second row, PTZ 20 mM. The first two rows of the plate (vehicle control group, where vehicle was embryo medium) contained a volume of 100 μl of embryo medium (1% DMSO) per well. The following three test groups (two rows each) contained 100 μl of different concentrations of test compound in embryo medium. The larvae thus treated were incubated at room temperature in dark and quiet conditions for 1 hour. Embryo medium (100 μl) was added to the first rows of each one of the four groups. Likewise, 100 μl of PTZ 40 mM were added to the second rows of each treatment group (final concentration of PTZ: 20 mM). Thus, the movement pattern of the exposed zebrafish larvae was video-tracked and assessed in presence of embryo medium (1% DMSO) and PTZ 20 mM. Videotracking of larval movements was started 5 minutes after addition of embryo medium or PTZ to the wells and was recorded for 30 minutes. A total of 8 wells in each plate were left without larvae (medium only) as a negative control, so that each experimental parameter consisted of an average of 10 to 12 larvae. The tracker software measured three periods of 10 minutes of larvae movement. Results were registered as the average value of the total time of larvae movement during 30 minutes. The figures shown are representative of a series of two similar experiments.
All statistical analyses were performed using GraphPad Prism 5 software (GraphPad Software, Inc.). Values were presented as means±standard deviation (SD). The locomotor activity of zebrafish larvae was analyzed using one-way ANOVA followed by Dunnett's multiple comparison test. Statistically significant differences (p<0.05) between a treated group and the equivalent control groups (vehicle or PTZ) were considered indicative of decrease or increase in locomotor activity of zebrafish larvae. For mouse experiments, significant differences between estimated time intervals prior to above-mentioned seizure stages were calculated using the unpaired Student's t-test.

[3] = test system: 6 Hz corneal stimulation-induced seizures in mice; assay: 6 Hz psychomotor seizure model of partial epilepsy; format: in vivo, mouse
Procedure: For assessing the anti-convulsant activity of ar-Tumerone, the 6 Hz psychomotor seizure model of partial epilepsy (Barton M. E. et al., 2001) was used, thereby applying the following stimulation parameters: 6 Hz, 0.2 ms rectangular pulse width, 3 s duration.
Every mouse (male NMRI+/−30 g) was administered the compound (ar-tumerone 50 mg/kg, 20 mg/kg, 1 mg/kg and 100 μg/kg) or vehicle (PEG 200:DMSO 1:1) via i.p. injection. After 30 minutes of incubation, seizures were induced via corneal stimulation using the Ugo-Basil device. Prior to the placement of corneal electrodes, a drop of 0.5% xylocaine was applied to the eyes of the animal. Animals were restrained manually and released immediately in a transparent plastic cage following the stimulation. Then, the animal was observed. The seizure was characterized by stun, forelimb clonus, twitching of vibrissae, straub-tail for at least 45 s. Protection was defined as the absence of a seizure. A minimum of six animals per dose was used. […] Negative control (only vehicle) and positive control (valproic acid 300 mg/kg) were included as well. As expected, 6 out of 6 mice treated with only vehicle were not protected and 6 out of 6 mice treated with valproic acid were protected.

[4] = 10 μg/mL, 1 hour pre-incubation, PTZ 20 mM, 30 min tracking
[5] = 46 μM, PTZ 20 mM, 30 min tracking

Molecule: CC(C)=CC(=O)C[C@H](C)c1ccc(C)cc1 [ar-turmerone]
- required dose of PTZ to trigger all assessed events ([1]; 50 mg/kg infused, tonic hindlimb extension p<0.05, other events and death p<0.01): significant resistance to the generation of seizures
- PTZ dose for generating seizure behaviors ([1]; 200 mg/kg, ear, tail and myoclonic twitch, tonic hind limb extension and death (p<0.05)): significant PTZ dose increase
- anticonvulsant activity (decrease of PTZ-induced seizure movements) [2, 4]: Significant decrease of the seizures triggered by PTZ
- anticonvulsant activity (decrease of PTZ-induced seizure movements) [2, 5]: anticonvulsant activity
- mice protected from seizures ([3]; 100 μg/kg i.p., 30 minutes before stimulation, n=6): Six out of six
- mice protected from seizures ([3]; 1 mg/kg i.p., 30 minutes before stimulation, n=6): Six out of six
- mice protected from seizures ([3]; 20 mg/kg i.p., 30 minutes before stimulation, n=6): Six out of six
- mice protected from seizures ([3]; 50 mg/kg i.p., 30 minutes before stimulation, n=6): Six out of six

Molecule: COc1cc(/C=C/C(=O)CC(=O)/C=C/c2ccc(O)c(OC)c2)ccc1O [curcumin, reference compound]
- anticonvulsant activity (decrease of PTZ-induced seizure movements) ([2]; concentration not given): potent activity in inhibiting PTZ-induced seizures

Molecule: CN1C(=O)CN=C(c2ccccc2)c2cc(Cl)ccc21 [diazepam, reference compound]
- anticonvulsant activity (decrease of PTZ-induced seizure movements) ([2]; 1.42 μg/ml, PTZ 20 mM, 30 min tracking): decreased PTZ-induced movements
- anticonvulsant activity (decrease of PTZ-induced seizure movements) ([2]; 14.23 μg/ml, PTZ 20 mM, 30 min tracking): decreased PTZ-induced movements

Molecule: O=C1NC(=O)C(c2ccccc2)(c2ccccc2)N1 [phenytoin, reference compound]
- anticonvulsant activity (decrease of PTZ-induced seizure movements) ([2]; 75 μg/ml, PTZ 20 mM, 30 min tracking): significant activity
- anticonvulsant activity (decrease of PTZ-induced seizure movements) ([2]; 252.26 μg/ml, PTZ 20 mM, 30 min tracking): significant activity

Molecule: CCCC(CCC)C(=O)[O-].[Na+] [sodium valproate, reference compound]
- delay of seizure behaviors (PTZ tail infusion) ([1]; 50 mg/kg, tonic hindlimb extension p<0.01, death p<0.05): capable of delaying tonic hindlimb extension
- anticonvulsant activity (decrease of PTZ-induced seizure movements) ([2]; concentration not given): able to control seizures generation

Molecule: CCCC(CCC)C(=O)O [valproic acid, reference compound]
- mice protected from seizures ([3]; 300 mg/kg, positive control): 6 out of 6

Molecule: α-atlantone
- anticonvulsant activity (decrease of PTZ-induced seizure movements) ([2]; 5 μg/mL, 1 hour pre-incubation, PTZ 20 mM, 30 min tracking): Significant decrease of the seizures triggered by PTZ
- anticonvulsant activity (decrease of PTZ-induced seizure movements) [2, 4]: Significant decrease of the seizures triggered by PTZ
- anticonvulsant activity (decrease of PTZ-induced seizure movements) ([2]; 23 μM, PTZ 20 mM, 30 min tracking): anticonvulsant activity
- anticonvulsant activity (decrease of PTZ-induced seizure movements) [2, 5]: anticonvulsant activity
